Source: US20170196998A1, “NANOPARTICLE CONTRAST AGENT FOR EARLY DIAGNOSIS OF ALZHEIMER'S DISEASE BY MAGNETIC RESONANCE IMAGING (MRI)” (The Chinese University of Hong Kong, priority 2016, published 2017)

Key:
[1] = target: amyloid plaques (Homo sapiens, UniProt P05067); test: Confocal fluorescent and phase-contrast imaging of amyloid plaque binding on consecutive brain sections; settings: applied to consecutive sections of APP transgenic mouse brain, FIG. 5
Source text: From top to bottom: Thioflavin T, curcumin, and curcumin-conjugated iron oxide.
The formulation of Curcumin-conjugated magnetic nanoparticles is described herein.

[2] = Adsorption isotherm of curcumin on iron oxide (Langmuir model); type: physicochemical; settings: room temperature, monolayer
Protocol: Based on the absorption isotherm study, curcumin preferentially binds the iron oxide surface, with a calculated maximum loading of 75 mg of curcumin per gram of iron oxide. FIGS. 2 & 3 show the adsorption isotherm and Langmuir model, which indicate that Curcumin is forming a monolayer and binds at a homogeneous site on the iron oxide surface.

Chain of amyloid plaques (P05067 672-713 limits assumed): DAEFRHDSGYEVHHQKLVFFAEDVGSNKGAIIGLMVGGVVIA

Row | calculated maximum loading of curcumin on iron oxide [2] | Compound | amyloid plaque binding [1]
1 | – | Cc1ccc2c(c1)sc(-c1ccc(N(C)C)cc1)[n+]2C.[Cl-] [Thioflavin T] | bind amyloid plaques
2 | 75 mg of curcumin per gram of iron oxide | COc1cc(/C=C/C(=O)CC(=O)/C=C/c2ccc(O)c(OC)c2)ccc1O [curcumin] | bind amyloid plaques
